Structures can show the parent of a compound that is named as a salt.
Columns and labels:
[1] = test system: MeWo brain-metastatic derivatives; test: Brain metastasis assay, intracardiac injection into athymic nude mice; format: in vivo, human; settings: oral, GW3965 diet 100 mg/kg from day 0
Description: Melanoma cells used for in vivo metastasis assays were transduced with a stably expressed retroviral construct encoding a luciferase reporter gene (Ponomarev et al., 2004), allowing us to monitor the in vivo progression of melanoma cells by bioluminescence imaging. The following numbers of melanoma cells, resuspended in 100 μL of PBS, were injected intravenously via the tail-vein: 4×10^4 MeWo cells, 2.5×10^5 HT-144 cells, 2×10^5 SK-Mel-334.2 cells, 5×10^4B16F10 cells, and 1×10^5 YUMM cells. The MeWo, HT-144, and SK-Mel-334.2 cells were injected into 6-8 week-old sex-matched NOD scid mice, while the B16F10 and YUMM cells were injected into 6-8 week-old sex-matched C57BL/6 mice. In all experiments assessing at the effects of GW3965 on metastasis formation, mice were pre-treated on a control diet or a GW3965-supplemented diet (20 mg/kg) for 10 days. To assess the effect of GW3965 treatment on brain metastasis, 1×10^5 MeWo brain-metastatic derivatives were injected intracardially into athymic nude mice. Immediately following injection, mice were randomly assigned to a control diet or GW3965-supplemented diet (100 mg/kg). […]

[2] = test system: MeWo human melanoma cells; test: Subcutaneous MeWo tumor growth in immunocompromised mice; format: in vivo; settings: oral, GW3965-supplemented diet
Description: Animals were palpated weekly for tumor formation, after which sizeable tumors were measured twice a week. Tumor volume was calculated as (small diameter)^2×(large diameter)/2.

[3] = test system: B-Raf^V600E/+; Pten^−/−; CDKN2A^−/− primary mouse melanoma cells; test: B-RafV600E/+; Pten−/−; CDKN2A−/− melanoma cells in syngeneic C57BL/6 mice; format: in vivo; settings: GW3965 diet 100 mg/kg
Description: Melanoma cells used for in vivo metastasis assays were transduced with a stably expressed retroviral construct encoding a luciferase reporter gene (Ponomarev et al., 2004), allowing us to monitor the in vivo progression of melanoma cells by bioluminescence imaging. The following numbers of melanoma cells, resuspended in 100 μL of PBS, were injected intravenously via the tail-vein: 4×10^4 MeWo cells, 2.5×10^5 HT-144 cells, 2×10^5 SK-Mel-334.2 cells, 5×10^4B16F10 cells, and 1×10^5 YUMM cells. The MeWo, HT-144, and SK-Mel-334.2 cells were injected into 6-8 week-old sex-matched NOD scid mice, while the B16F10 and YUMM cells were injected into 6-8 week-old sex-matched C57BL/6 mice. […] To assess the effect of GW3965 treatment on brain metastasis, 1×10^5 MeWo brain-metastatic derivatives were injected intracardially into athymic nude mice. Immediately following injection, mice were randomly assigned to a control diet or GW3965-supplemented diet (100 mg/kg). To determine whether oral delivery of GW3965 can inhibit the progression of incipient metastasis, NOD Scid mice were intravenously injected with 4×10^4 MeWo cells and the cells were allowed to colonize the lungs for 42 days, after which mice were blindedly assigned to a control diet or a GW3965-supplemented diet (100 mg/kg) treatment.

[4] = test system: RCC human renal cancer cells, PANC1 human pancreatic cancer cells, H460 human lung cancer cells; test: Matrigel invasion of renal, pancreatic and lung cancer cells treated with GW3965; format: cell-based; settings: 1 μM for 72 hours prior to the assay
Description: Various cell lines (5×10^4 RCC human renal cancer cells, 5×10^4 PANC1 human pancreatic cancer cells, and 5×10^4 H460 human lung cancer cells) were treated with DMSO or GW3965 at 1 μM for 56 hours. The cells were serum starved for 16 hours in 0.2% FBS media in the presence of DMSO or GW3965. Following serum starvation, the cells were subjected to the trans-well invasion assay using a matrigel invasion chamber system (354480, BD Biosciences). Invasion chambers were pre-equilibrated prior to the assay by adding 0.5 mL of starvation media to the top and bottom wells. Meanwhile, cancer cells were trypsinized and viable cells were counted using trypan blue. Cancer cells were then resuspended at a concentration of 1×10^5 cells/1 mL starvation media, and 0.5 mL of cell suspension, containing 5×10^4 cells, was seeded into each trans-well. The invasion assay was allowed to proceed for 24 hours at 37° C. […] Following fixation, the inserts were washed in PBS and then cut out and mounted onto slides using VectaShield mounting medium containing DAPI nuclear stain (H-1000, Vector Laboratories). The basal side of each insert was imaged using an inverted fluorescence microscope (Zeiss Axiovert 40 CFL) at 5× magnification, and the number of DAPI-positive cells was quantified using ImageJ.

[5] = test system: VEGF-induced endothelial recruitment; test: In vivo matrigel plug assay; parameters: species or system mouse; settings: VEGF 400 ng/mL + recombinant ApoE3 10 μg/mL
Description: 10 μg/mL recombinant human ApoE3 (4696, BioVision), 10 μg/mL BSA (A2153, Sigma Aldrich), or 400 ng/ml VEGF were mixed with matrigel (356231, BD Biosciences) as indicated. 400 μL of matrigel containing the indicated recombinant proteins were injected subcutaneously just above the ventral flank of immunocompromised NOD-SCID mice. Plugs were extracted on day 3 post-injection and fixed in 4% paraformaldehyde for 48 hours. Plugs were then paraffin-embedded and sectioned at 5-μm-thick increments. Plug cross-sectional sections were immunohistochemically stained using a primary antibody against the mouse endothelial antigen MECA-32 (Developmental Studies Hybridoma Bank, The University of Iowa, IA), detected by peroxidase-conjugated secondary antibody, and subsequently visualized by DAB oxidization. To quantify the extent of endothelial cell invasion into each matrigel plug, the number of endothelial cells was counted in 4-5 random fields for each plug, and the average number of endothelial cells per given plug area was calculated.

[6] = test system: breast cancer, renal cell cancer, and pancreatic cancer cell lines; test: Matrigel invasion of breast, renal cell and pancreatic cancer cell lines with recombinant ApoE; format: cell-based, human; settings: recombinant ApoE3 100 μg/mL vs BSA
Description: The ability of cancer cells to invade through matrigel in vitro was tested by using a trans-well matrigel invasion chamber system (354480, BD Biosciences). Various cancer cell lines were serum-starved overnight in media containing 0.2% FBS. The following day, invasion chambers were pre-equilibrated prior to the assay by adding 0.5 mL of starvation media to the top and bottom wells. Meanwhile, cancer cells were trypsinized and viable cells were counted using the trypan blue dead cell exclusion dye. Cancer cells were then resuspended at a concentration of 1×10^5 cells/1 mL starvation media, and 0.5 mL of cell suspension, containing 5×10^4 cells, was seeded into each trans-well. To determine the effect of recombinant ApoE on cancer cell invasion, human recombinant ApoE3 (4696, Biovision) or BSA were added to each trans-well at 100 μg/mL at the start of the assay. The invasion assay was allowed to proceed for 24 hours at 37° C. […] Following fixation, the inserts were washed in PBS and then cut out and mounted onto slides using VectaShield mounting medium containing DAPI nuclear stain (H-1000, Vector Laboratories). The basal side of each insert was imaged using an inverted fluorescence microscope (Zeiss Axiovert 40 CFL) at 5× magnification, and the number of DAPI-positive cells was quantified using ImageJ.

Molecule	systemic dissemination and brain colonization [1]	tumor growth inhibition [2]	overall survival [3]	tumor growth and lung metastasis [3]	tumor cell invasion [4]	suppression of VEGF-induced endothelial recruitment into subcutaneous matrigel plugs [5]	tumor cell invasion [6]
O=C(O)Cc1cccc(OCCCN(Cc2cccc(C(F)(F)F)c2Cl)CC(c2ccccc2)c2ccccc2)c1 [GW3965 2, 3-[3-[N-(2-Chloro-3-trifluoromethylbenzyl)-(2,2-diphenylethyl)amino]propyloxy] phenylacetic acid hydrochloride]	inhibited	70%	extended	robustly inhibited	inhibition		
recombinant human ApoE: recombinant human ApoE3 (4696, BioVision)						greater than 40 fold	inhibited

From patent US10945978B2, “Treatment and diagnosis of melanoma” (The Rockefeller University, priority 2012, dated 2021)
